Where “and” joins values, the source holds several entries; their conditions need not be identical. Equal values may be shown once. Read-outs that look alike come from different tables or passages of the source.

In series [1] the test system is hCoV-229E. It counts as cell-based.
Series [2] relates to SARS-CoV-2. It counts as cell-based.
Series [3] has as its system SARS-CoV-2. On the set-up: species or system golden Syrian hamster. To be noted: hamster, in vivo.
The target in series [4] is T1, SARS2-PLpro (Severe acute respiratory syndrome coronavirus 2, UniProt P0DTD1). It counts as biochemical.
Series [5] concerns MERS-CoV. It counts as cell-based.
Series [6] concerns the target T1, SARS2-PLpro. Type of series: biochemical. To be noted: read-out: IC50 against SARS2-PLpro.
The test system of series [7] is hCoV-OC43. Type of series: cell-based.
In series [8] the test system is Huh-7, VeroE6/TMPRSS2, Calu-3, Caco-2, BSC-1 cells and human embryonic lung fibroblasts (HELF).
In series [9] the test system is MERS-CoV. It counts as cell-based. The source holds these as a separate data set.
Series [10] has as its system PLpro-mediated IFN suppression (SARS2-PLpro, MERS-PLpro). Type of series: cell-based.
In series [11] the target is MERS-PLpro_WT (Middle East respiratory syndrome-related coronavirus, UniProt K9N7C7). Type of series: binding.
For series [12], the system named is SARS-CoV-2. Type of series: cell-based. This is another data set of the same source.
Series [13] relates to ISG15 and PKR expression.
For series [14], the system named is human DUBs. It counts as biochemical.
The test system of series [15] is SARS-CoV-2. Briefly: microbe, parasite or virus in culture. It counts as cell-based.
Series [16] addresses T1, SARS2-PLpro. It counts as binding, SARS-CoV-2.
Series [17] concerns cellular proteases (serine, cysteine and acid proteases). Type of series: biochemical.
Series [18] concerns MERS-CoV. In words: microbe, parasite or virus in culture. Type of series: cell-based.
In series [19] the test system is ISG15 and PKR expression. Type of series: cell-based.
For series [20], the target named is MERS-PLpro (Middle East respiratory syndrome-related coronavirus, UniProt K9N7C7). Type of series: biochemical.
Where [21] appears, read: Severe acute respiratory syndrome coronavirus 2, read-out: EC50 anti-SARS-CoV-2.

MERS-PLpro_WT, sequence (K9N7C7 1552-1823 limits assumed): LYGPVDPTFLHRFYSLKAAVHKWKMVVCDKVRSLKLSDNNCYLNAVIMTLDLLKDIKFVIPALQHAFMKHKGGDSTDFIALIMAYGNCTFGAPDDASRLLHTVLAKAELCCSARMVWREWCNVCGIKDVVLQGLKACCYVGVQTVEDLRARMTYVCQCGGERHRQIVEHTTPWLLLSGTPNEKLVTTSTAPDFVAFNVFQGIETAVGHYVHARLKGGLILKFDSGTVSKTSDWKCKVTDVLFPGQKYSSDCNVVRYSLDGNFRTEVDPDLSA
MERS-PLpro, sequence (K9N7C7 1552-1823 limits assumed): as above

With `O=C(Nc1ccccc1Cl)c1sc(=S)n2c1[nH]c(=O)c1ccccc12` [F0213], the “decrease of viral yields, hCoV-229E” value in series [1] is recorded as “about 2 log10”. In addition, the “reduction of SARS-CoV-2 viral yields” value in [2] is recorded as “more than 1 log10”. In addition, in series [3], the “decrease of infectious viral PFU in lung tissues” value is reported as 1–2 log10, the lung histology scores entry was “significantly reduced” and the “suppression of SARS-CoV-2 genome copies (normalized by β-actin) in the lungs” value is on record as “comparable degree of suppression”. Further, the “modification of PLpro by HA-Ub-VS” value in series [4] was “almost completely eliminated”. In addition, the “NP antigen immunofluorescence, MERS-CoV-infected Vero cells” value in series [5] is given as “significant inhibition of virus replication”. Also, the IC50 (commonly the midpoint of a concentration-inhibition curve) in series [6] was determined as 7.4 µM. Also, the “decrease of viral yields, hCoV-OC43” value in series [7] is given as “around 1.5 log10”. The “cytotoxicity in the matching cell lines” value in [8] is recorded as “negligible cytotoxicity”. For the same compound, in [9], the “decrease of viral yields, MERS-CoV” value is listed as “about 3 log10”. For the same compound, the “IFN-β, IRF3 and NF-κB reporter gene expression under PLpro suppression” value in [10] is listed as “rescued the genes expression in a dose-dependent manner”. Further, the Kd (as a rule, the free concentration of one partner at which half of the binding sites on the other are occupied at equilibrium, for simple one-to-one binding) in [11] (read-out: KD, MERS-PLpro WT) came to 0.95 µM. Further, in series [12], the “NP antigen immunofluorescence, SARS-CoV-2-infected Vero cells” value is recorded as “significant inhibition of virus replication”. Also, in [13], the “expression of ISG15 and PKR, SARS-CoV-2-infected Caco-2 cells” value is given as “significantly enhanced”. Further, the “modification of cellular DUBs by HA-Ub-VS” value in [14] is “no change”. Further, in [15] (setting [21]), the EC50 (commonly the concentration giving half of the maximal effect) came out at 4.55 µM. In addition, the 50% effective concentration (EC50) in series [15] (read-out: EC50 anti-SARS-CoV-2) was 4.55 µM and 4.5 µM. Also, in [16], the “KD of F0213 to SARS2-PLpro pre-incubated with GRL0617” value is on record as “undetectable” and the “binding affinity to SARS2-PLpro relative to GRL0617 (fold less)” value is “around 5 fold”. In addition, in [16] (read-out: Kd, SARS2-PLpro), the Kd came out at 40.5 µM. For the same compound, in [17], the cellular protease activity entry was “not affected”. Moreover, the concentration for a half-maximal effect (EC50) in series [18] (Middle East respiratory syndrome-related coronavirus, read-out: antiviral EC50 against MERS-CoV) worked out at 1.54 µM. Moreover, the “transcription levels of ISG15 and PKR, MERS-CoV-infected Huh-7 cells” value in series [19] is “reduced”.

`Cc1cccc(NC(=O)c2sc(=S)n3c2[nH]c(=O)c2cc4c(cc23)OCO4)c1` [F0393]: the IC50 in series [6] stood at 15.8 µM. Moreover, the EC50 in [15] (setting [21]) was determined as 15.6 µM.

On to `N#C[C@@]1(c2ccc3c(N)ncnn23)O[C@H](CO)[C@@H](O)[C@H]1O` [GS-441524, reference compound], for which, in series [3], the “decrease of infectious viral PFU in lung tissues” value is given as “comparable”, the lung histology scores entry is “significantly reduced” and the “suppression of SARS-CoV-2 genome copies (normalized by β-actin) in the lungs” value was “comparable degree of suppression”.

Consider `CCC(CC)COC(=O)[C@H](C)N[P@](=O)(OC[C@H]1O[C@@](C#N)(c2ccc3c(N)ncnn23)[C@H](O)[C@@H]1O)Oc1ccccc1` [remdesivir], for which the “NP antigen immunofluorescence, MERS-CoV-infected Vero cells” value in series [5] was “significant inhibition of virus replication”. For the same compound, the “NP antigen immunofluorescence, SARS-CoV-2-infected Vero cells” value in series [12] is “significant inhibition of virus replication”.

As for GRL0617 [reference compound], the “NP antigen immunofluorescence, MERS-CoV-infected Vero cells” value in [5] is reported as “marginal virus suppression”. Also, the “effect on MERS-PLpro activity” value in series [20] is recorded as “ineffective”. Also, the “KD, MERS-PLpro WT” value in [11] is on record as “no binding affinity”. For the same compound, the “NP antigen immunofluorescence, SARS-CoV-2-infected Vero cells” value in series [12] is on record as “marginal virus suppression”. For the same compound, the “inhibition against MERS-CoV” value in series [18] is “no inhibition”.

The values above are taken from article PMC8983325 (Protein & Cell, 2022).
